Patent US20230035479A1, “METHODS AND COMPOSITIONS FOR REDUCING HAIR GREYING” (President and Fellows of Harvard College, priority 2019, published 2023)
Like-named read-outs stand apart in the source and are kept apart here.

What was measured:
C57BL/6J mice = type: in vivo, mouse
mature melanocytes = experiment: Differentiated/mature melanocytes and hair bulb cells, immunofluorescence; type: in vivo, mouse
Experimental: Loss of hair pigmentation can be due to defects in melanin synthesis, loss of differentiated melanocytes, or problems in MeSC maintenance. To understand how stress impacts the melanocyte lineage, RTX was injected into mice in anagen, when both MeSCs and differentiated melanocytes were present but located within distinct compartments—MeSCs were near to the bulge while differentiated melanocytes were at the hair bulb (FIG. 1E). […] These differentiated melanocytes continued to generate pigments, and the hair coat remained black (FIGS. 6F-6G). When hair follicles in the RTX-injected animals entered catagen and telogen, many have lost all MeSCs (FIG. 1E, Telo). Subsequently, when the next round of anagen initiated, differentiated melanocytes were not produced to color new hair shafts, and unpigmented hairs emerged (FIG. 1E, 2nd Ana, FIG. 6H). […] In this case, unpigmented hairs appeared as soon as new hairs emerged in the following anagen (FIGS. 7A-7B). […] MeSCs were also lost or reduced in mice subjected to restraint stress or chronic unpredictable stress (FIG. 7C). Since stress depleted MeSCs, the loss of hair pigmentation in all three conditions was permanent (FIG. 7D).
Quiescence is a key feature of many somatic stem cells. Loss of quiescence has been postulated to cause MeSC loss in Bcl2 mutants. To examine if stress alters MeSCs quiescence, RTX or norepinephrine was injected into mice that had entered full anagen, when MeSCs are normally quiescent. A dramatic increase in the number of proliferating MeSCs was seen within 24 hours after RTX or norepinephrine injection—about 50% of MeSCs became positive for Phospho-Histone H3, an M phase marker (FIG. 4B). This number is in sharp contrast to the MeSC proliferation seen in early anagen (˜6%), the only stage when MeSCs proliferate to self-renew (FIG. 11E).
Mouse skin samples were fixed using 4% paraformaldehyde (PFA) for 15 minutes at room temperature, washed 6 times with PBS, and immersed in 30% sucrose overnight at 4° C. Samples were then embedded in OCT (Sakura Finetek). 35˜50 μm sections were fixed in 4% paraformaldehyde (PFA) for 2 minutes and washed with PBS and PBST. Slides were then blocked using blocking buffer (5% donkey serum; 1% BSA, 2% cold water fish gelatin in 0.3% Triton in PBS) for 1 hour at room temperature, followed by staining with primary antibodies overnight at 4° C. and secondary antibody for 4 hours at room temperature. For sympathetic nerve density quantification, 90 μm sections were used. EdU was developed for 1 hour using the Click-It reaction according to manufacturer instructions (Thermo Fisher Scientific). TUNEL assay was performed according to manufacturer instructions (Roche). Fontana—Masson staining was performed according to manufacturer instructions (Market Lab ML7255). Antibodies used: TRP2 (Santa Cruz 10451, 1:800), tyrosine hydroxylase (rabbit, Millipore AB152, 1:1000 or sheep, Millipore AB1542, 1:150-1:300), c-Fos (Abcam, 190289, 1:1000), γ-H2AX (Cell Signaling, 9718, 1:400), phospho-histone H3 (rabbit, Cell Signaling Technology 3377S, 1:500), cleaved caspase 3 (rabbit, Cell Signaling Technology 9664S, 1:400), GFP (rabbit, Abcam ab290, 1:1000 or chicken, Ayes labs GFP-1010, 1:200), CD3 (eBioscience 14-0032-81, 1:800), CD11b (eBioscience 14-0112-81, 1:800), Phospho-CREB (Cell Signaling 9198, 1:800), MITF (Abcam ab12039, 1:400).

[1] = test system: Phospho-CREB (a downstream effector of ADRB2); experiment: Phospho-CREB immunofluorescence in hair follicles; type: in vivo, mouse; settings: 12 hours after RTX injection; not in mature melanocytes
Experimental: It was then considered whether ADRB2 might mediate the impact of stress on MeSCs.
Mouse skin samples were fixed using 4% paraformaldehyde (PFA) for 15 minutes at room temperature, washed 6 times with PBS, and immersed in 30% sucrose overnight at 4° C. Samples were then embedded in OCT (Sakura Finetek). 35˜50 μm sections were fixed in 4% paraformaldehyde (PFA) for 2 minutes and washed with PBS and PBST. Slides were then blocked using blocking buffer (5% donkey serum; 1% BSA, 2% cold water fish gelatin in 0.3% Triton in PBS) for 1 hour at room temperature, followed by staining with primary antibodies overnight at 4° C. and secondary antibody for 4 hours at room temperature. For sympathetic nerve density quantification, 90 μm sections were used. EdU was developed for 1 hour using the Click-It reaction according to manufacturer instructions (Thermo Fisher Scientific). TUNEL assay was performed according to manufacturer instructions (Roche). Fontana—Masson staining was performed according to manufacturer instructions (Market Lab ML7255). […]

sympathetic neurons = experiment: c-FOS immunofluorescence in sympathetic ganglia; type: in vivo, mouse; settings: after RTX injection
[2] = test system: melanocyte stem cells (MeSCs); experiment: MeSC numbers in hair follicles, TRP2 immunofluorescence or membrane GFP tracing
Experimental: For RTX injection, mice received injections of RTX (30-100 μg/kg) in the flank for 1-3 days as described previously [15, 16, 51-56]. […] Control mice were treated with the vehicle only. RTX injection was done either in full anagen (P31-P36) or in 1st telogen (P21). […] Mice were treated for three days (P28-P30). […] RTX was given at Anagen VI (P31˜P36).

[3] = test system: melanocyte stem cells (MeSCs); experiment: MeSC proliferation, Phospho-Histone H3 immunofluorescence; settings: within 24 hours after injection, full anagen
Experimental: For RTX injection, mice received injections of RTX (30-100 μg/kg) in the flank for 1-3 days as described previously [15, 16, 51-56]. […] Control mice were treated with the vehicle only. RTX injection was done either in full anagen (P31-P36) or in 1st telogen (P21). […] RTX was given at Anagen VI (P31˜P36).
All images were acquired using a Zeiss LSM 880 confocal microscope or Keyence microscope using ×20 or ×40 magnification lenses. Images are presented as Maximum Intensity Projection images. For colocalization analysis, images are presented as a single Z stack.

## C=C(C)[C@]12C[C@@H](C)[C@@]34O[C@](Cc5ccccc5)(O[C@@H]1[C@@H]3C=C(COC(=O)Cc1ccc(O)c(OC)c1)C[C@]1(O)C(=O)C(C)=C[C@@H]41)O2 [RTX, resiniferatoxin]
C57BL/6J mice; C57BL/6J mice, next hair cycle after RTX injection
  hair greying (unpigmented hairs): many new hairs formed in the next hair cycle following RTX injection became unpigmented
C57BL/6J mice; RTX injection, male and female mice
  extent of hair greying, male vs female: same extent of hair greying in both male and female mice
C57BL/6J mice; RTX into CD11b-DTR mice, myeloid lineages ablated by diphtheria toxin
  white hair formation: still resulted in white hair formation
C57BL/6J mice; RTX into RIPK3 mutant mice
  hair greying: still caused hair greying
C57BL/6J mice; RTX into Rag1 mutant mice lacking T and B cells
  white hair formation: still resulted in white hair formation
C57BL/6J mice; RTX into Tyr-CreER, GR fl/fl mice (MeSC-GR cKO)
  hair greying: still resulted in hair greying
C57BL/6J mice; RTX into adrenalectomized mice
  hair greying: still caused hair greying
C57BL/6J mice; RTX, ADRB2 depleted from MeSCs using Tyr-CreER
  white hair formation: white hairs failed to form
C57BL/6J mice; RTX, ADRB2 depleted from hair follicle stem cells
  hair greying: still resulted in hair greying
Mature melanocytes; 5 days after RTX injection in anagen
  differentiated melanocytes in the same hair follicle: remained unperturbed
Mature melanocytes; after injection, full anagen
  proliferation or apoptosis in mature melanocytes: no changes in proliferation or apoptosis
[1]
  Phospho-CREB in MeSCs: marked induction of Phospho-CREB
Sympathetic neurons
  c-FOS induction in cell bodies of sympathetic neurons: Robust c-FOS induction
  time at which c-FOS induction diminishes: > 24 h
  time of peak c-FOS induction: 2 to 4 h
  time to c-FOS induction: ≤ 1 h
[2]; RTX injected during telogen
  MeSC loss: caused MeSC loss
[2]; RTX injected in anagen
  time to complete loss of MeSCs from the bulge in many hair follicles: ≤ 5 days
[2]; RTX injected in anagen, entire skin
  TRP2+ MeSC number: significantly reduced
[2]; Tyr-CreER, Rosa-mT/mG mice, shortly after RTX injection (D1)
  GFP positive cells (traced MeSCs): transient increase in GFP positive cells
[3]
  MeSCs positive for Phospho-Histone H3: about 50%
